From patent publication US20200071310A1, “N-ARYL PYRAZOLES AS NRF2 REGULATORS” (GLAXOSMITHKLINE INTELLECTUAL PROPERTY DEVELOPMENT LIMITED, priority 2016, published 2020)

Molecular target: T1, Keap1 (321-609) Kelch domain / TAMRA-labeled NRF2 peptide (ETGE motif) (Homo sapiens, UniProt Q14145)
T1 construct: the Kelch domain (321-609) of Keap1 is used
Experiment: NRF2-Keap1 FP Assay
Format: binding
Conditions: Keap1 (321-609) 20 nM, Tamra labeled peptide 8 nM
Description: One model for the NRF2-Keap1 interaction is through two binding sites in the Neh2 domain on NRF2. The two sites are referred to as the DLG binding motif (latch domain, uM affinity) and the ETGE binding motif (hinge domain, nM affinity). The Keap1 protein consists of an N-terminal region (NTR), a broad complex, tramtrack, and brick a' brac domain (BTB), an intervening region (IVR), a double glycine repeat domain (DGR or Kelch), and a C-terminal region. The DLG and ETGE motifs of NRF2's Neh2 domain bind to the Kelch domain of Keap1 at different affinities. In the Keap1 Kelch fluorescence polarization (FP) assay, a TAMRA-labeled 16mer peptide (AFFAQLQLDEETGEFL) containing the ETGE motif of NRF2 and the Kelch domain (321-609) of Keap1 is used. The assay determines if a compound interferes with the binding between Keap1 […] and the TAMRA-labeled peptide. Binding of TAMRA-labeled NRF2 peptide to Keap1 (321-609) results in a high FP signal. If a compound interferes with the binding between the peptide and the protein, it will cause the assay signal to decrease. Thus, assay signal is inversely proportional to binding inhibition.
100 nl of 100× compound dose response curves (serial 3-fold dilutions) in DMSO were stamped using an Echo liquid handling system (Labcyte) into 384-well low volume black assay plates (Greiner, #784076), with DMSO in columns 6 and 18. The top concentration of compound was located in columns 1 and 13. Keap1 (321-609) was diluted to 40 nM (2×) in 1× assay buffer (50 mM Tris, pH 8.0, 100 mM NaCl, 5 mM MgCl2, 1 mM DTT, 2 mM CHAPS, and 0.005% BSA) and 5 ul was added using a Multidrop Combi (Thermo Electron Corporation) equipped with a metal tip dispenser to all wells of the compound plate, except column 18. Column 18 received only 5 ul of assay buffer. Immediately, 5 uL of 16 nM (2×) of Tamra labeled peptide (AFFAQLQLDEETGEFL, 21st Century Biochemicals) was added to all wells of the plate. The plates were spun at 500 rpm for 1 min, incubated for 1 hr at room temperature, and read on an Analyst GT (Molecular Devices) equipped with excitation (530/25 nm) and emission (580/10 nm) filters designed for Tamra probes. A 561 nm dichroic mirror was also used in the Analyst. The final assay concentrations of Keap1l (321-609) and Tamra labeled peptide were 20 nM and 8 nM, respectively. Fluorescence measurements, represented as mP, were used in the transformation of the data. Compound activity was calculated based on percent inhibition, normalized against controls in the assay (Control 1 contains the Tamra peptide and Keap1 (321-609) together (0% response) and control 2 contains the Tamra peptide alone (100% response)). Data analysis was handled using the software package Abase XE (Surrey, United Kingdom. The % inhibition values were calculated by the equation:
100−(100*((compound response−average control 2)/(average control 1−average control2))).
For calculation of pIC50s, Abase XE used a four parameter equation.
IC50s<1 nM (+++++), IC50s 1 nM-10 nM (++++), IC50s 10-100 nM (+++), IC50s 100 nM-1 μM (++), IC50s 1-10 μM (+), IC50s>10 μM (−), or were not determined (ND).

T1 sequence (Q14145 321-609): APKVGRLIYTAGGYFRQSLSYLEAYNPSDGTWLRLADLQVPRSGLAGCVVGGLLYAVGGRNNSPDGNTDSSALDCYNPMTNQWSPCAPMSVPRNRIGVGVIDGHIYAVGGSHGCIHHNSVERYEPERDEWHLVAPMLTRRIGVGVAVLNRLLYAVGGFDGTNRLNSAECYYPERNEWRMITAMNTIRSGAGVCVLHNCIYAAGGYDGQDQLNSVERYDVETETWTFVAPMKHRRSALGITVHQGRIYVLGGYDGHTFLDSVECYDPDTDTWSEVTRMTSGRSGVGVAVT

EC50 | SMILES
1 to 10 nM | C[C@H]1Cc2ccc(Br)cc2S(=O)(=O)N(Cc2cccc(-n3ncc(C(=O)O)c3[C@@H]3C[C@H]3c3cn(C)nn3)c2)C1 (racemic) [Example 17, 1-(3-((8-bromo-4-methyl-1,1-dioxido-4,5-dihydrobenzo[f][1,2]thiazepin-2(3H)-yl)methyl)phenyl)-5-((trans)-2-(1-methyl-1H-1,2,3-triazol-4-yl)cyclopropyl)-1H-pyrazole-4-carboxylic acid]
100 to 1000 nM | CN(Cc1cccc(-n2ncc(C(=O)O)c2[C@@H]2C[C@H]2c2cn(C)nn2)c1)S(=O)(=O)c1ccccc1OC(F)(F)F (racemic) [Example 46, 5-((trans)-2-(1-methyl-1H-1,2,3-triazol-4-yl)cyclopropyl)-1-(3-((N-methyl-2-(trifluoromethoxy)phenylsulfonamido)methyl)phenyl)-1H-pyrazole-4-carboxylic acid]
10 to 100 nM | CCCCCCN(Cc1cccc(-n2ncc(C(=O)O)c2[C@@H]2C[C@H]2c2cn(C)nn2)c1)S(=O)(=O)c1ccc(Oc2ccccc2)cc1 (relative stereo) [Example 36, 1-(3-((N-hexyl-4-phenoxyphenylsulfonamido)methyl)phenyl)-5-((trans)-2-(1-methyl-1H-1,2,3-triazol-4-yl)-cyclopropyl)-1H-pyrazole-4-carboxylic acid]
100 to 1000 nM | C[C@H]1Cc2ccccc2S(=O)(=O)N(Cc2cccc(-n3ncc(C(=O)O)c3[C@@H]3C[C@H]3c3cnn(C)c3)c2)C1 [Example 32, 1-(3-(((S)-4-methyl-1,1-dioxido-4,5-dihydrobenzo[f][1,2]thiazepin-2(3H)-yl)methyl)-phenyl)-5-(trans-2-(1-methyl-1H-pyrazol-4-yl)cyclopropyl)-1H-pyrazole-4-carboxylic acid]
1 to 10 nM | CCCCCCN(Cc1cccc(-n2ncc(C(=O)O)c2[C@@H]2C[C@H]2c2cn(C)nn2)c1)S(=O)(=O)c1cccc(-c2ccccc2)c1 (racemic) [Example 34, 1-(3-((N-hexyl-[1,1′-biphenyl]-3-ylsulfonamido)methyl)phenyl)-5-((trans)-2-(1-methyl-1H-1,2,3-triazol-4-yl)cyclopropyl)-1H-pyrazole-4-carboxylic acid]
10 to 100 nM | Cn1cc([C@@H]2C[C@H]2c2c(C(=O)O)cnn2-c2cccc(CN3Cc4ncccc4OC(C)(C)C3)c2)nn1 (racemic) [Example 9]
100 to 1000 nM | COc1ccccc1S(=O)(=O)NCc1cccc(-n2ncc(C(=O)O)c2[C@@H]2C[C@H]2c2cn(C)nn2)c1 (racemic) [Example 52, 1-(3-((2-methoxyphenylsulfonamido)methyl)phenyl)-5-((trans)-2-(1-methyl-1H-1,2,3-triazol-4-yl)cyclopropyl)-1H-pyrazole-4-carboxylic acid]
1 to 10 nM | Cn1cc([C@@H]2C[C@H]2c2c(C(=O)O)cnn2-c2cccc(Cn3ccnc3CC3CCCCCC3)c2)nn1 (racemic) [Example 23]
1000 to 10000 nM | COc1ccccc1S(=O)(=O)N(C)C1CCc2ccc(-n3ncc(C(=O)O)c3[C@@H]3C[C@H]3c3cn(C)nn3)cc21 (stereo partly drawn) [Example 27, 1-(3-(2-methoxy-N-methylphenylsulfonamido)-2,3-dihydro-1H-inden-5-yl)-5-((1R,2R)-2-(1-methyl-1H-1,2,3-triazol-4-yl)cyclopropyl)-1H-pyrazole-4-carboxylic acid]
10 to 100 nM | CN(Cc1cccc(-n2ncc(C(=O)O)c2[C@@H]2C[C@H]2c2cn(C)nn2)c1)S(=O)(=O)c1cccc(Oc2ccccc2)c1 (racemic) [Example 35, 5-((trans)-2-(1-methyl-1H-1,2,3-triazol-4-yl)cyclo-propyl)-1-(3-((N-methyl-3-phenoxy-phenyl-sulfonamido)-methyl)phenyl)-1H-pyrazole-4-carboxylic acid]
10 to 100 nM | CCCCCCN(Cc1cccc(-n2ncc(C(=O)O)c2[C@@H]2C[C@H]2c2cn(C)nn2)c1)S(=O)(=O)c1ccccc1C (racemic) [Example 37, 1-(3-((N-hexyl-2-methylphenylsulfonamido)methyl)phenyl)-5-((trans)-2-(1-methyl-1H-1,2,3-triazol-4-yl)cyclo-propyl)-1H-pyrazole-4-carboxylic acid]
100 to 1000 nM | Cc1ccccc1S(=O)(=O)N(C)Cc1cccc(-n2ncc(C(=O)O)c2[C@@H]2C[C@H]2c2cn(C)nn2)c1 (racemic) [Example 42, 1-(3-((N,2-dimethylphenylsulfonamido)methyl)phenyl)-5-((trans)-2-(1-methyl-1H-1,2,3-triazol-4-yl)cyclopropyl)-1H-pyrazole-4-carboxylic acid]
10 to 100 nM | C[C@H]1Cc2ccccc2S(=O)(=O)N(Cc2cccc(-n3ncc(C(=O)O)c3[C@@H]3C[C@H]3c3cn(C)nn3)c2)C1 [Example 15, 1-(3-(((S)-4-methyl-1,1-dioxido-4,5-dihydrobenzo[f][1,2]thiazepin-2(3H)-yl)methyl)phenyl)-5-((trans)-2-(1-methyl-1H-1,2,3-triazol-4-yl)cyclopropyl)-1H-pyrazole-4-carboxylic acid]
100 to 1000 nM | CC[C@@H]1CN(Cc2cccc(-n3ncc(C(=O)O)c3[C@@H]3C[C@H]3c3cnn(C)c3)c2)S(=O)(=O)c2ccccc2O1 [Example 31, 1-(3-(((R)-4-ethyl-1,1-dioxido-3,4-dihydro-2H-benzo[b][1,4,5]oxathiazepin-2-yl)methyl)-phenyl)-5-(trans-2-(1-methyl-1H-pyrazol-4-yl)cyclopropyl)-1H-pyrazole-4-carboxylic acid]
1000 to 10000 nM | COc1ccccc1S(=O)(=O)N(Cc1cccc(-n2ncc(C(=O)O)c2[C@@H]2C[C@H]2c2cn(C)nn2)c1)C1CC1 (racemic) [Example 53, 1-(3-((N-cyclopropyl-2-methoxyphenylsulfonamido)methyl)phenyl)-5-((trans)-2-(1-methyl-1H-1,2,3-triazol-4-yl)cyclopropyl)-1H-pyrazole-4-carboxylic acid]
10 to 100 nM | CC[C@@H]1Cc2ccccc2CN(Cc2cccc(-n3ncc(C(=O)O)c3[C@@H]3C[C@H]3c3cn(C)nn3)c2)C1 [Example 10]
10 to 100 nM | CN(Cc1cccc(-n2ncc(C(=O)O)c2[C@@H]2C[C@H]2c2cn(C)nn2)c1)S(=O)(=O)c1ccccc1Oc1ccccc1 (relative stereo) [Example 38, 5-((trans)-2-(1-methyl-1H-1,2,3-triazol-4-yl)cyclo-propyl)-1-(3-((N-methyl-2-phenoxyphenyl-sulfonamido)-methyl)phenyl)-1H-pyrazole-4-carboxylic acid]
100 to 1000 nM | C[C@H]1Cc2cc(C(F)(F)F)ccc2S(=O)(=O)N(Cc2cccc(-n3ncc(C(=O)O)c3[C@@H]3C[C@H]3c3cn(C)nn3)c2)C1 (racemic) [Example 19, 1-(3-((4-methyl-1,1-dioxido-7-(trifluoromethyl)-4,5-dihydro-benzo[f][1,2]thiazepin-2(3H)-yl)methyl)phenyl)-5-((trans)-2-(1-methyl-1H-1,2,3-triazol-4-yl)cyclopropyl)-1H-pyrazole-4-carboxylic acid]
100 to 1000 nM | CC[C@@H]1CN(Cc2cc(-n3ncc(C(=O)O)c3[C@@H]3C[C@H]3c3cn(C)nn3)ccc2C)Cc2ccccc2O1 [Example 28]
100 to 1000 nM | CN(Cc1cccc(-n2ncc(C(=O)O)c2[C@@H]2C[C@H]2c2cn(C)nn2)c1)S(=O)(=O)c1c(Cl)cccc1C(F)(F)F (racemic) [Example 41, 1-(3-((2-chloro-N-methyl-6-(trifluoro-methyl)phenyl-sulfonamido)-methyl)phenyl)-5-((trans)-2-(1-methyl-1H-1,2,3-triazol-4-yl)cyclo-propyl)-1H-pyrazole-4-carboxylic acid]
10 to 100 nM | CN(Cc1cccc(-n2ncc(C(=O)O)c2[C@@H]2C[C@H]2c2cn(C)nn2)c1)S(=O)(=O)c1ccc(-c2ccccc2)cc1 (relative stereo) [Example 39, 5-((trans)-2-(1-methyl-1H-1,2,3-triazol-4-yl)cyclo-propyl)-1-(3-((N-methyl-[1,1′-biphenyl]-4-ylsulfonamido)-methyl)phenyl)-1H-pyrazole-4-carboxylic acid]
